{
  "source": "paper PMC4393269",
  "about": "“Carvacrol Codrugs: A New Approach in the Antimicrobial Plan” (PLoS ONE, 2015)",
  "key": {"[1]": {"assay": "Kinetics of chemical hydrolysis in buffers", "type": "physicochemical", "details": "for half-life at 9.1 µM: read-out: t½ (converted)", "method": "(§1) The HPLC system consisted of a Waters 600 HPLC pump (Waters Corporation, Milford, MA, USA), equipped with a Waters 2996 photodiode array detector. The column was a Kinetex RP-C8 column (3.0 x 150 mm, 5 μm). The mobile phase consisted of 0.1% TFA in acetonitrile/0.1% TFA in 95% H2O and 5% acetonitrile 50:50, under isocratic conditions at a flow rate of 1 mL/min. The UV detector was set at a length of 220 nm.\n[…] Reactions were initiated by adding 1 mL of 10^-4 M stock solution (in acetonitrile) of the compound to 10 mL of the appropriate aqueous buffer solution, containing 20% acetonitrile. At appropriate time intervals, samples of 20 μL were withdrawn and analyzed by HPLC. Pseudo-first-order rate constants (kobs) for the hydrolysis of the compounds were then calculated from the slopes of the linear plots of log (% residual compound) against time. The experiments were run in triplicate and the mean values of the rate constants were calculated."}, "pepsin": {"tested_on": "pepsin", "assay": "Drug stability in simulated gastric fluid with pepsin", "type": "in vitro ADME", "details": "for kobs: 37°C", "method": "as §1\n(§2) To assess enzymatic stability, hydrochloric buffer with pepsin (10 or 40 mg/mL) and phosphate buffer with pancreatin (10 or 40 mg/mL) were used. Buffer solution (250 μL) was preincubated at 37°C and 50 μL of drug stock solution (50 μM in ethanol and FASSIF 1:9) were added and shaken at 37°C and 650 rpm. Samples of 100 μL were withdrawn at various times and 100 µL of ice-cold acetonitrile containing 0.5 v/v% formic acid were added to stop enzymatic activity. Samples were vortexed and centrifuged at 2°C and 10000 rpm for 10 min. The drug content in the supernatant was analyzed by HPLC."}, "[2]": {"assay": "Drug stability in simulated gastric fluid with pepsin", "type": "in vitro ADME", "details": "37°C, read-out: t½ (converted)", "method": "as §1, §2"}, "Water solubility (HPLC)": {"assay": "Water solubility (HPLC)", "type": "physicochemical", "details": "thermodynamic from solid, room temperature, mean of three experiments (SD)", "method": "as §1, with “nm. […] Then the mixture was filtered using a Millipore filter (0.45 μm) and the concentration of the compound in its saturated solution was determined by HPLC analysis.” for “nm.”"}, "E. coli ATCC 8739": {"tested_on": "E. coli ATCC 8739", "assay": "Transmission electron microscopy", "type": "cell-based", "details": "12.5 mg/mL for 3 h", "source_text": "(§3) For transmission electron microscopy, microrganisms were fixed with 2.5% glutaraldehyde in 0.1 M cacodylate buffer, postfixed with 1% OsO4, dehydrated in graded ethanol and embedded in Epon 812. Ultrathin sections (60 to 80 nm) were then mounted on 200-mesh copper grids and stained with uranyl acetate and lead citrate for ultrastructural observation. Sections were photographed using a Philips 268 D electron microscope (FEI)."}, "C. albicans ATCC 10231 [3]": {"tested_on": "C. albicans ATCC 10231", "assay": "Transmission electron microscopy", "type": "cell-based", "details": "12.5 mg/mL for 3 h", "source_text": "as §3"}, "S. aureus ATCC 29213": {"tested_on": "S. aureus ATCC 29213", "assay": "Transmission electron microscopy", "type": "cell-based", "details": "12.5 mg/mL for 3 h", "source_text": "as §3"}, "pancreatin": {"tested_on": "pancreatin", "assay": "Drug stability in simulated intestinal fluid with pancreatin", "type": "in vitro ADME", "details": "37°C", "method": "as §1, §2"}, "[4]": {"assay": "Drug stability in simulated intestinal fluid with pancreatin", "type": "in vitro ADME", "details": "37°C, read-out: t½ (converted)", "method": "as §1, §2"}, "C. albicans ATCC 10231 [5]": {"tested_on": "C. albicans ATCC 10231", "assay": "Broth microdilution MIC/MFC", "type": "cell-based", "details": "Candida albicans, ATCC10231", "method": "Two Gram-positive (S. aureus ATCC 29213 and S. epidermidis ATCC 35984) and two Gram-negative (E. coli ATCC 8739 and P. aeruginosa ATCC 9027) strains, and one fungal strain (C. albicans ATCC 10231) were used for the detection of antibacterial activity of carvacrol, NAC, Ac-Cys(Allyl)-OH, and carvacrol codrugs 1–10. All tested compounds were dissolved in 20% DMSO to prepare the stock solution (100 mg/mL). The final concentration of DMSO in each well appeared to be not toxic for all studied microorganisms, as confirmed by the solvent control test included in the study.\nThe MIC detection of C. albicans ATCC 10231 was performed using the broth microdilution method according to EUCAST guidelines in RPMI 1640 plus 2% glucose with a final inoculum of 1–5 x 10^5 CFU/mL for 24–48 h at 37°C. The Minimum Fungicidal Concentration (MFC) was determined as the lowest concentration of substances at which no fungal growth occurred on Sabouraud agar plates.\nData were obtained from at least three independent experiments performed in duplicate. The susceptibility of the bacterial strains against ciprofloxacin was used as an internal standard during MIC determinations."}, "[6]": {"details": "SIF pH 7.4, pancreatin 10 mg/mL"}},
  "note": "Where two headings read alike, the source gives them in different places.",
  "data": [
    {"molecule": "C=CCSC[C@H](NC(C)=O)C(=O)Oc1cc(C(C)C)ccc1C", "note": "[codrug 4, N-Ac-Cys(Allyl)-CAR]", "values": [
      {"measurement": "half-life at 9.1 µM", "setting": "[1]; aqueous buffer pH 5.0, pH 5.0, 37°C", "result": 62.1, "unit": "h"},
      {"measurement": "half-life at 9.1 µM", "setting": "[1]; hydrochloric acid buffer pH 1.3 (non-enzymatic SGF), pH 1.3, 37°C", "result": 75.4, "unit": "h"},
      {"measurement": "kobs", "setting": "[1]; pH 1.3, 37°C", "result": "0.009 (± 0.001) h^-1"},
      {"measurement": "kobs", "setting": "[1]; pH 7.4, 37°C", "result": "0.030 (± 0.001) h^-1"},
      {"measurement": "half-life at 9.1 µM", "setting": "[1]; phosphate buffer pH 7.4 (non-enzymatic SIF), pH 7.4, 37°C", "result": 22.9, "unit": "h"},
      {"measurement": "kobs", "setting": "pepsin; SGF pH 1.3, pepsin 10 mg/mL", "result": "0.009 (± 0.001) h^-1"},
      {"measurement": "kobs", "setting": "pepsin; SGF pH 1.3, pepsin 40 mg/mL", "result": "0.119 (± 0.003) h^-1"},
      {"measurement": "stability at pH 1.3 respect to pH 7.4", "setting": "pepsin; in the presence of pepsin and pancreatin (10 mg/mL)", "result": 13, "unit": "fold"},
      {"measurement": "half-life at 8.3 µM", "setting": "[2]; simulated gastric fluid with pepsin 10 mg/mL, pH 1.3, SGF pH 1.3, pepsin 10 mg/mL", "result": "> 74", "unit": "h"},
      {"measurement": "half-life at 8.3 µM", "setting": "[2]; simulated gastric fluid with pepsin 40 mg/mL, pH 1.3, SGF pH 1.3, pepsin 40 mg/mL", "result": 5.79, "unit": "h"},
      {"measurement": "solubility at 15 min", "setting": "Water solubility (HPLC)", "result": 0.15, "unit": "mg/mL"},
      {"measurement": "cell morphology by TEM", "setting": "E. coli ATCC 8739", "result": "alteration of outer membrane"},
      {"measurement": "cell morphology by TEM", "setting": "C. albicans ATCC 10231 [3]", "result": "disintegration of the membranes"},
      {"measurement": "cell morphology by TEM", "setting": "S. aureus ATCC 29213", "result": "induced abnormal septum formation with irregular features"},
      {"measurement": "kobs", "setting": "pancreatin; [6]", "result": "0.126 (± 0.003) h^-1"},
      {"measurement": "t½", "setting": "pancreatin; [6]", "result": "5.51 (± 0.13) h"},
      {"measurement": "kobs", "setting": "pancreatin; SIF pH 7.4, pancreatin 40 mg/mL", "result": "0.83 (± 0.02) h^-1"},
      {"measurement": "half-life at 8.3 µM", "setting": "[4]; simulated intestinal fluid with pancreatin 10 mg/mL, pH 7.4, SIF pH 7.4, pancreatin 10 mg/mL", "result": 5.5, "unit": "h"},
      {"measurement": "half-life at 8.3 µM", "setting": "[4]; simulated intestinal fluid with pancreatin 40 mg/mL, pH 7.4, SIF pH 7.4, pancreatin 40 mg/mL", "result": "~1", "unit": "h"},
      {"measurement": "MIC", "setting": "C. albicans ATCC 10231 [5]; C. albicans ATCC 10231, 24–48 h at 37°C, read-out: MIC", "result": 1250, "unit": "mg/L"},
      {"measurement": "MFC", "setting": "C. albicans ATCC 10231 [5]; C. albicans ATCC 10231, read-out: MFC", "result": 1250, "unit": "mg/L"}
    ]}
  ]
}
